Assay results: US20220016115A1, “USP19 INHIBITORS FOR USE IN THERAPY” (ALMAC DISCOVERY LIMITED, priority 2018, published 2022)

Target: T1, USP19 (Homo sapiens, UniProt O94966)
T1 sequence (O94966 1-1318): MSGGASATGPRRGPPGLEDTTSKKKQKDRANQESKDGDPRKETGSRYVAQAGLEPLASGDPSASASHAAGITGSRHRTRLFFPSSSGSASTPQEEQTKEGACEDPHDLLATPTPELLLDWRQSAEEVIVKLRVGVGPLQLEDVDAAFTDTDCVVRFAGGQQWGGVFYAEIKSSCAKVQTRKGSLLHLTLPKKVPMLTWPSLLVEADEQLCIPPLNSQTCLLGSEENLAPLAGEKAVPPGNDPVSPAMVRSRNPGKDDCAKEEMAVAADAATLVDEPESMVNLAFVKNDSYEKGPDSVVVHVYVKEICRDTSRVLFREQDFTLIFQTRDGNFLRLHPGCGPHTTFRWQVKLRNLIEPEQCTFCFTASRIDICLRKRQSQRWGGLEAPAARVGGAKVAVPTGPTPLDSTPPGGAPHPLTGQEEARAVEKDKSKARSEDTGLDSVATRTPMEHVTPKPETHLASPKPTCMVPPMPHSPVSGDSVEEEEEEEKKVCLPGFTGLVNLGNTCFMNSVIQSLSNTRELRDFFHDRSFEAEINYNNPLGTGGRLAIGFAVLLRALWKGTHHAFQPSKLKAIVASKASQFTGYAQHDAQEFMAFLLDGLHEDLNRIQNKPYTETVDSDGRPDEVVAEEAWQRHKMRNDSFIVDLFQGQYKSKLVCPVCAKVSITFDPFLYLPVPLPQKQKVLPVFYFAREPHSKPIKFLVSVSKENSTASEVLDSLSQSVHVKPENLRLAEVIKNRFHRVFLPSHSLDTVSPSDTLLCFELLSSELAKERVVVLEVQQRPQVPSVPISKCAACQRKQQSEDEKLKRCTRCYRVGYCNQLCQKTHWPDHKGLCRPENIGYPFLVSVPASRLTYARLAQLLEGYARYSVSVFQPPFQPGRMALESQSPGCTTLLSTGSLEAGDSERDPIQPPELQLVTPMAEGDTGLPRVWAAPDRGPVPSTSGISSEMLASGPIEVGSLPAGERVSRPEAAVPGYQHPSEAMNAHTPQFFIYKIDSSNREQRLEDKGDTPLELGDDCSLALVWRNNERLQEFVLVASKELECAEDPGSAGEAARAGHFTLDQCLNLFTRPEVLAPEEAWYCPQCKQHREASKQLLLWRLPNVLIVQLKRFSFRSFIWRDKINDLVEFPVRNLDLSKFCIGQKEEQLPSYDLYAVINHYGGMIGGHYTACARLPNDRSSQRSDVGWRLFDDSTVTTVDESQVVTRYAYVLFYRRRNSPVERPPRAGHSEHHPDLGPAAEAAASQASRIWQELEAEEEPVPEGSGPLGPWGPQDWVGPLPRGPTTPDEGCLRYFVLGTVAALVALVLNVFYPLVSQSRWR
Assay: USP19 fluorescence polarisation (FP) homogeneous assay
Type: biochemical
Parameters: Full-length USP19 was purchased from Boston Biochem (E-576); purchased Boston Biochem E-576
Conditions: Ubiquitin-Lys-TAMRA substrate, full-length USP19 2.5 nM, average of at least two duplicate experiments
Description: Unless otherwise stated, all other reagents were purchased from Sigma. Enzymatic reactions were conducted in black flat bottom polystyrene 384-well plates (Nunc) and 30 μL total volume. […] Inhibitors were stored as 10 mM DMSO stocks in an inert environment (low humidity, dark, low oxygen, room temperature) using the Storage Pod System and serial dilutions were prepared in buffer just prior to the assay (from 200 μM to 2 μM, 8-18 data point curve). Following incubation at RT for 30 min, the enzymatic reactions were initiated by dispensing the Ub substrate (500 nM, 10 μL). FP was measured every 15 min over a period of 90 min (within the linear range of the assay) using a Synergy 4 plate reader (BioTek) exciting at 530 nm and measuring the amount of parallel and perpendicular light at 575 nm. The FP signal was subsequently normalised to the no compound control.

Row | Compound | IC50 [nM]
1 | C[C@H](CC1CCCCC1)C(=O)N1CC[C@@](O)(Cn2cc(C(=O)N3CCNCC3)c(-c3ccccc3F)cc2=O)C(C)(C)C1 [Example 206, 1-(((S)-1-((R)-3-Cyclohexyl-2-methylpropanoyl)-4-hydroxy-3,3-dimethylpiperidin-4-yl)methyl)-4-(2-fluorophenyl)-5-(piperazine-1-carbonyl)pyridin-2(1 H)-one] | < 500
2 | CCC(n1cnc(-c2ccccc2)cc1=O)C1(O)CCN(C(=O)[C@H](C)CC2CCCCC2)CC1 (stereo partly drawn) [Example 43, 3-((S)-1-(1-((R)-3-Cyclohexyl-2-methylpropanoyl)-4-hydroxypipendin-4-yl)propyl)-6-phenylpyrimidin-4(3H)-one and 3-((R)-1-(1-((R)-3-cyclohexyl-2-methylpropanoyl)-4-hydroxypipendin-4-yl)propyl)-6-phenylpyrimidin-4(3H)-one] | 5000 to 50000
3 | CN(C)C(=O)c1cn(C[C@]2(O)CCN(C(=O)[C@H](CO)CC3CCC3)CC2(C)C)c(=O)cc1-c1ccccc1 [Example 166, 1-(((S)-1-((S)-3-Cyclobutyl-2-(hydroxymethyl)propanoyl)-4-hydroxy-3,3-dimethylpiperidin-4-yl)methyl)-N,N-dimethyl-6-oxo-4-phenyl-1,6-dihydropyridine-3-carboxamide] | < 500
4 | C[C@H](CC1CCCCC1)C(=O)N1CCC(O)(Cn2cnc(-c3ccccc3F)cc2=O)C2(CCC2)C1 (mixture of isomers) [Example 51, 3-(((R)-6-((R)-3-Cyclohexyl-2-methylpropanoyl)-9-hydroxy-6-azaspiro[3.5]nonan-9-yl)methyl)-6-(2-fluorophenyl)pyrimidin-4(3H)-one and 3-(((S)-6-((R)-3-Cyclohexyl-2-methylpropanoyl)-9-hydroxy-6-azaspiro[3.5]nonan-9-yl)methyl)-6-(2-fluorophenyl)pyrimidin-4(3H)-one] | 500 to 5000
5 | CN(C)C(=O)c1cn(C[C@]2(O)CCN(C(=O)[C@H](CO)CC3CCCCC3)CC2(C)C)c(=O)cc1-c1ccccc1 [Example 152, 1-(((S)-1-((S)-3-Cyclohexyl-2-(hydroxymethyl)propanoyl)-4-hydroxy-3,3-dimethylpiperidin-4-yl)methyl)-N,N-dimethyl-6-oxo-4-phenyl-1,6-dihydropyridine-3-carboxamide] | < 500
6 | C[C@H](CC1CCC1)C(=O)N1CC[C@@](O)(Cn2cc(C(=O)N(C)C)c(-c3ccccc3F)cc2=O)C2(CCCC2)C1 [Example 222, 1-(((S)-7-((R)-3-Cyclobutyl-2-methylpropanoyl)-10-hydroxy-7-azaspiro[4.5]decan-10-yl)methyl)-4-(2-fluorophenyl)-N,N-dimethyl-6-oxo-1,6-dihydropyridine-3-carboxamide] | < 500
7 | C[C@H](CC1CCC1)C(=O)N1CC[C@@](O)(Cn2cc(C(=O)N3CCNCC3)c(-c3ccccc3F)cc2=O)C(C)(C)C1 [Example 236, 1-(((S)-1-((R)-3-Cyclobutyl-2-methylpropanoyl)-4-hydroxy-3,3-dimethylpiperidin-4-yl)methyl)-4-(2-fluorophenyl)-5-(piperazine-1-carbonyl)pyridin-2(1 H)-one] | < 500
8 | C[C@H](CC1CCCCC1)C(=O)N1CCC(O)(Cn2cnc(-c3cccc(CO)c3)cc2=O)C(C)(C)C1 (stereo partly drawn) [Example 138] | < 500
9 | CC(n1cnc(-c2ccccc2)cc1=O)C1(O)CCN(C(=O)C[C@@H](C)c2ccccc2)CC1 (mixture of isomers) [Example 47, 3-((R)-1-(4-Hydroxy-1-((R)-3-phenylbutanoyl)piperidin-4-yl)ethyl)-6-phenylpyrimidin-4(3H)-one and 3-((S)-1-(4-hydroxy-1-((R)-3-phenylbutanoyl)piperidin-4-yl)ethyl)-6-phenylpyrimidin-4(3H)-one] | 50000 to 250000
10 | 3-(((S)-10-Hydroxy-7-((2R,3R)-2-phenylpyrrolidine-3-carbonyl)-7-azaspiro[4.5]decan-10-yl)methyl)-6-phenylpyrimidin-4(3H)-one and 3-(((S)-10-Hydroxy-7-((2a3S)-2-phenylpyrrolidine-3-carbonyl)-7-azaspiro[4.5]decan-10-yl)methyl)-6-phenylpyrimidin-4(3H)-one [Example 260] | < 500
11 | C[C@H](CC1CCCCC1)C(=O)N1CCC(O)(Cn2cnc(-c3ccccc3F)cc2=O)C2(CCCC2)C1 (stereo partly drawn) [Example 119, 3-((7-((R)-3-Cyclohexyl-2-methylpropanoyl)-10-hydroxy-7-azaspiro[4.5]decan-10-yl)methyl)-6-(2-fluorophenyl)pyrimidin-4(3H)-one] | < 500
12 | C[C@H](CC1CCC1)C(=O)N1CC[C@@](O)(Cn2cc(C(=O)N3CCNCC3)c(-c3ccccc3)cc2=O)C2(CCCC2)C1 [Example 215, 1-(((S)-7-((R)-3-Cyclobutyl-2-methylpropanoyl)-10-hydroxy-7-azaspiro[4.5]decan-10-yl)methyl)-4-phenyl-5-(piperazine-1-carbonyl)pyridin-2(1H)-one] | < 500
13 | C[C@H](CC1CCCCC1)C(=O)N1CCC(O)(Cn2cc(C(=O)N3CCNCC3)c(-c3ccccc3)cc2=O)C2(CCCCC2)C1 (stereo partly drawn) [Example 238, 1-((2-((R)-3-Cyclohexyl-2-methylpropanoyl)-5-hydroxy-2-azaspiro[5.5]undecan-5-yl)methyl)-4-phenyl-5-(piperazine-1-carbonyl)pyridin-2(1H)-one] | < 500
14 | C[C@H](CC1CCCCC1)C(=O)N1CCC(O)(Cn2cc(C(=O)N(C)C)c(N(C)C)cc2=O)C2(CCCC2)C1 (stereo partly drawn) [Example 145, 1-((7-((R)-3-Cyclohexyl-2-methylpropanoyl)-10-hydroxy-7-azaspiro[4.5]decan-10-yl)methyl)-4-(dimethylamino)-N,N-dimethyl-6-oxo-1,6-dihydropyridine-3-carboxamide] | < 500
15 | C[C@H](CC1CCCCC1)C(=O)N1CCC(O)(Cn2cnc(-c3ccccc3CN)cc2=O)C(C)(C)C1 (stereo partly drawn) [Example 141] | < 500
16 | C[C@H](CC1CCCCC1)C(=O)N1CCC(O)(Cn2cc(C(=O)N(C)C)c(-c3ccsc3)cc2=O)C2(CCCC2)C1 (stereo partly drawn) [Example 155, 1-((7-((R)-3-Cyclohexyl-2-methylpropanoyl)-10-hydroxy-7-azaspiro[4.5]decan-10-yl)methyl)-N,N-dimethyl-6-oxo-4-(thiophen-3-yl)-1,6-dihydropyridine-3-carboxamide] | < 500
17 | C[C@H](CC1CCCCC1)C(=O)N1CCC(O)(Cn2cc(C(=O)N(C)C)c(-c3ccc(CO)cc3)cc2=O)C2(CCCC2)C1 (stereo partly drawn) [Example 162, 1-((7-((R)-3-Cyclohexyl-2-methylpropanoyl)-10-hydroxy-7-azaspiro[4.5]decan-10-yl)methyl)-4-(4-(hydroxymethyl)phenyl)-N,N-dimethyl-6-oxo-1,6-dihydropyridine-3-carboxamide] | < 500
18 | CC(C)N(C)C(=O)c1cn(CC2(O)CCN(C(=O)[C@H](C)CC3CCCCC3)CC2(C)C)c(=O)cc1-c1ccccc1 (mixture of isomers) [Example 73, 1-(((R)-1-((R)-3-Cyclohexyl-2-methylpropanoyl)-4-hydroxy-3,3-dimethylpiperidin-4-yl)methyl)-N-isopropyl-N-methyl-6-oxo-4-phenyl-1,6-dihydropyridine-3-carboxamide and 1-(((S)-1-((R)-3-Cyclohexyl-2-methylpropanoyl)-4-hydroxy-3,3-dimethylpiperidin-4-yl)methyl)-N-isopropyl-N-methyl-6-oxo-4-phenyl-1,6-dihydropyridine-3-carboxamide] | < 500
